We go through three compounds from patent publication US7129273B2, “Dicreatine Malate” (Creative Compounds, LLC, priority 2003, dated 2006).

Series [1] is described as follows: metabolic properties and overall effectiveness as a supplement, compared with other creatine forms. Type of series: in vivo.
The next series has as its system burn victims. To be noted: compared with molar equivalents of ornithine base and alpha-ketoglutaric acid taken separately; cited from earlier work.
Another series relates to ATP production. In words: production of ATP (high energy phosphate molecules). To be noted: compared with additive effects of creatine and malic acid taken separately.
Series [2] is described as follows: absorption / bioavailability after oral supplementation. Type of series: in vivo.
The nature of series [3]: problems associated with creatine supplementation (cramping, bloating). It is filed as in vivo. To be noted: compared with other creatine supplementation.
[4] abbreviates: compared with any other form of creatine or malic acid supplement currently available.
Where [5] appears, read: compared to creatine monohydrate.

Take `CN(CC(=O)O)C(=N)N.O=C(O)CC(O)C(=O)O` [monocreatine malate, reference compound]: the “effect compared with dicreatine malate” value in series [1] (comparison with dicreatine malate, inventors' experience) is recorded as “inferior to the dicreatine malate”.

With `NCCC[C@H](N)C(=O)O` [ornithine alpha-ketoglutarate], the anti-catabolic effect result in the series with burn victims was “strong anti-catabolic effect on burn victims far greater in effect than what is produced by merely combining the effects of the molar equivalents”.

As to dicreatine malate, the “production of ATP” value with ATP production is “increases the production of ATP to a much greater extent than what would be expected by the mere additive effects”. Besides, in series [2] (setting [4]), the absorption result is “more readily absorbed”. In series [2] (compared with individual bioavailabilities of creatine monohydrate and malic acid), the “bioavailabilities of the creatine and malic acid moieties” value was “increase the bioavailablities of both the creatine and malic acid moieties”. For the same compound, in series [1] (setting [5]), the decreasing adipose stores result was “enhanced efficacy for decreasing adipose stores”; the increasing cell volumization entry is on record as “enhanced efficacy for increasing cell volumization”; the increasing muscle mass entry is “enhanced efficacy for increasing muscle mass”; the “increasing overall strength and endurance” value is “enhanced efficacy for increasing for increasing overall strength and endurance”. In addition, in series [1] (setting [4]), the effectiveness entry is recorded as “much more effective”. Also, the “problems associated with creatine supplementation (cramping, bloating, bioavailability issues)” value in series [3] is recorded as “decreasing some of the problems associated with other creatine supplementation”.
